From PubChem BioAssay (NCI) come the findings set out here.

Structures are written as SMILES.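 Cells were grown in 96-well plates and exposed to each compound for 48 hours at five concentrations; endpoints were interpolated linearly between bracketing concentrations, or set to the highest concentration if not reached. TGI denotes the concentration required for complete inhibition of growth.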

Some test systems named below: SK-MEL-28 melanoma; U251 CNS; NCI/ADR-RES ovarian; MDA-MB-231 breast; DU-145 prostate; NCI-H460 lung; NCI-H23 lung; HOP-92 NSCLC; CCRF-CEM leukemia; NCI-H522 lung; EKVX NSCLC; KM12 colon; HL-60(TB) leukemia; HCC-2998 colon; SK-OV-3 ovarian; SNB-75 CNS.
Assay in all cases: growth of human tumour cells (NCI), 48 h

With `Cc1ccc(-[n+]2cc([O-])on2)cc1`, the TGI in the assay with SK-MEL-28 melanoma, in the assay with U251 CNS, in the assay on NCI/ADR-RES ovarian, in the assay with MDA-MB-231 breast, with DU-145 prostate and in the assay with NCI-H460 lung was above 100 µM in each case. Further, the TGI in the assay with NCI-H23 lung, in the assay with HOP-92 NSCLC, with CCRF-CEM leukemia, in the assay with NCI-H522 lung, in the assay with EKVX NSCLC and in the assay on KM12 colon was above 100 µM throughout. Moreover, the TGI in the assay on HL-60(TB) leukemia was above 100 µM.

`CCOC(=O)c1cn2c(n1)sc1cc(F)ccc12`: the TGI in the assay on SK-MEL-28 melanoma, with U251 CNS, in the assay with NCI/ADR-RES ovarian, with MDA-MB-231 breast, in the assay with DU-145 prostate and in the assay with HCC-2998 colon was above 100 µM throughout. Also, the TGI with NCI-H460 lung, in the assay on NCI-H23 lung, in the assay with SK-OV-3 ovarian, in the assay with HOP-92 NSCLC, with CCRF-CEM leukemia and in the assay with NCI-H522 lung was above 100 µM in each case. The TGI in the assay on EKVX NSCLC, in the assay with KM12 colon and with SNB-75 CNS was above 100 µM in each case.

With `O=C1c2sc(-c3ccc(Cl)cc3)cc2-n2cccc21`, the TGI in the assay on SK-MEL-28 melanoma, with U251 CNS, in the assay on NCI/ADR-RES ovarian, in the assay on MDA-MB-231 breast, in the assay with DU-145 prostate and with HCC-2998 colon was above 100 µM throughout. Further, the TGI in the assay on NCI-H460 lung, in the assay with SK-OV-3 ovarian, in the assay on CCRF-CEM leukemia, with NCI-H522 lung, in the assay on EKVX NSCLC and in the assay on KM12 colon was above 100 µM throughout. The compound further displayed a TGI in the assay on SNB-75 CNS above 100 µM.

In the case of `C[N+]12C=CC=C1C(N1CCCC1)c1scc(-c3ccc(Br)cc3)c12` (stereo not drawn), the TGI with SK-MEL-28 melanoma is above 60.5 µM; in the assay on U251 CNS, 24.7 µM; with NCI/ADR-RES ovarian, above 100 µM; in the assay on MDA-MB-231 breast it was above 93.8 µM; in the assay on DU-145 prostate, above 100 µM; in the assay with HCC-2998 colon, 39.9 µM. The TGI was above 84.7 µM with NCI-H460 lung; 32.4 µM in the assay on NCI-H23 lung; above 100 µM with SK-OV-3 ovarian; 42.1 µM in the assay with HOP-92 NSCLC; 58.9 µM with CCRF-CEM leukemia; 9.89 µM in the assay on NCI-H522 lung. For the same compound, the TGI is above 100 µM in the assay with EKVX NSCLC, 25.9 µM with KM12 colon and above 22.3 µM in the assay with SNB-75 CNS.

For `COC(=O)c1cccc(C)c1C1CN=NC12Cc1cc(C)cc(C)c1C2=O` (stereo not drawn), the TGI is above 100 µM in the assay on SK-MEL-28 melanoma; above 100 µM in the assay on U251 CNS; above 100 µM in the assay with NCI/ADR-RES ovarian; 77.6 µM with MDA-MB-231 breast; above 100 µM in the assay with DU-145 prostate; 76.7 µM in the assay on HCC-2998 colon. Besides, the TGI with NCI-H460 lung is above 100 µM; with NCI-H23 lung it was above 100 µM; in the assay with HOP-92 NSCLC, above 100 µM; in the assay with CCRF-CEM leukemia, above 100 µM; with NCI-H522 lung, above 100 µM; in the assay with EKVX NSCLC it was 90.3 µM. The TGI in the assay on KM12 colon was above 100 µM; with HL-60(TB) leukemia, 47.5 µM; in the assay with SNB-75 CNS, 83.1 µM.

On to `CC(C)=C[C@H]1C[C@H](C)[C@H]2CC[C@H](C)c3c2c1c(C)c1ncoc31`, for which the TGI turned out to be 37 µM in the assay with SK-MEL-28 melanoma; 34 µM in the assay with U251 CNS; 32.4 µM with NCI/ADR-RES ovarian; 39.3 µM with MDA-MB-231 breast; 33.9 µM with DU-145 prostate; 35.8 µM with HCC-2998 colon. Also, the TGI in the assay with NCI-H460 lung was determined as 35.6 µM; in the assay on HOP-92 NSCLC, 31.4 µM; in the assay on CCRF-CEM leukemia, 39.6 µM; with NCI-H522 lung, 31.5 µM; in the assay with EKVX NSCLC, 30 µM; in the assay with KM12 colon, 34.5 µM. In addition, the figures for the TGI with HL-60(TB) leukemia and with SNB-75 CNS were 44.8 µM and 36.2 µM, respectively.

Turning to `Cc1ccc(S[C@@H](C)[C@@](O)(CF)CN(Cc2ccccc2)C(=O)C(F)(F)F)cc1`, the TGI in the assay with SK-MEL-28 melanoma was above 100 µM; in the assay with U251 CNS, 35.3 µM; with NCI/ADR-RES ovarian it was 69.5 µM; in the assay on MDA-MB-231 breast, 54.3 µM; in the assay with DU-145 prostate, 53.2 µM; in the assay on HCC-2998 colon it was 41.5 µM. In addition, the TGI with NCI-H460 lung was 36.9 µM; in the assay on NCI-H23 lung, 56.7 µM; with HOP-92 NSCLC, above 100 µM; in the assay on CCRF-CEM leukemia, above 100 µM; in the assay on NCI-H522 lung it was above 100 µM; in the assay on EKVX NSCLC, 64.9 µM. In the assay on HL-60(TB) leukemia, this compound had a TGI of 46.2 µM.

For `O=c1[nH]c(=O)n(C2COC(CO)C2O)cc1F` (stereo not drawn), the TGI in the assay on SK-MEL-28 melanoma, with U251 CNS, with NCI/ADR-RES ovarian, in the assay with MDA-MB-231 breast, in the assay with DU-145 prostate and with HCC-2998 colon was above 100 µM throughout. In addition, the TGI in the assay with NCI-H460 lung, in the assay with NCI-H23 lung, in the assay on SK-OV-3 ovarian, with HOP-92 NSCLC, in the assay on CCRF-CEM leukemia and in the assay with NCI-H522 lung was above 100 µM in each case. The TGI in the assay on EKVX NSCLC, in the assay with KM12 colon and in the assay with SNB-75 CNS was above 100 µM each time.
